The values below come from PubChem BioAssay AID1918936 (Molecular Pharmacology Branch, DTP, NCI, 2023).

Each structure is given as a SMILES string. Where “and” joins values, the source holds several entries; their conditions need not be identical. Equal entries are not always repeated.

The assay relates to 349418-098-R-PDC complex spheroid viability. Nature of the assay: Anticancer human tumor 349418-098-R-PDC patient-derived lung adenocarcinoma cell line growth inhibition. The following applies: for viability, T/C: stronger effect = lower value. Summed up: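 Drug combinations with the LSD1 inhibitor iadademstat tested on tumor cells co-cultured as spheroids with endothelial cells and mesenchymal stem cells. Concentrations descended in half-log increments from clinical Cmax or 10 microM.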

Where [1] appears, read: curve of first compound, second compound 0.1 µM.
Where [2] appears, read: curve of first compound, second compound 0.316 µM.
The mark [3] stands for this setting: curve of first compound, second compound 1 µM.
The mark [4] stands for this setting: curve of first compound, second compound 3.16 µM.
[5] abbreviates: curve of first compound, second compound 10 µM.
[6] abbreviates: second compound 0.1 µM, first compound 0.0316 µM.
Setting [7] is: second compound 0.1 µM, first compound 0.1 µM.
Where [8] appears, read: second compound 0.1 µM, first compound 0.316 µM.
[9] abbreviates: second compound 0.1 µM, first compound 1 µM.
The mark [10] stands for this setting: second compound 0.316 µM, first compound 0.0316 µM.
Setting [11] is: second compound 0.316 µM, first compound 0.1 µM.
The mark [12] stands for this setting: second compound 0.316 µM, first compound 0.316 µM.
Setting [13] is: second compound 0.316 µM, first compound 1 µM.
[14] abbreviates: second compound 1 µM, first compound 0.0316 µM.
[15] abbreviates: second compound 1 µM, first compound 0.1 µM.
Where [16] appears, read: second compound 1 µM, first compound 0.316 µM.
Setting [17] is: second compound 1 µM, first compound 1 µM.
[18] abbreviates: second compound 3.16 µM, first compound 0.0316 µM.
Setting [19] is: second compound 3.16 µM, first compound 0.1 µM.
Where [20] appears, read: second compound 3.16 µM, first compound 0.316 µM.
Where [21] appears, read: second compound 3.16 µM, first compound 1 µM.
Setting [22] is: second compound 10 µM, first compound 0.0316 µM.
Setting [23] is: second compound 10 µM, first compound 0.1 µM.
Where [24] appears, read: second compound 10 µM, first compound 0.316 µM.
Where [25] appears, read: second compound 10 µM, first compound 1 µM.
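Also: spheroids exposed to agents for seven days before readout.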
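For viability, T/C in this document: 100% = DMSO vehicle control wells.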

Take `COc1cc(Nc2ncc3c(n2)-c2ccc(Cl)cc2C(c2c(F)cccc2OC)=NC3)ccc1C(=O)O` + NC1CC1c1ccc(-c2cccc(O)c2)cc1: the IC50 reads like this: under setting [1], 26 nM; under setting [2], 69.9 nM; under setting [3], 53.9 nM; under setting [4], 57.8 nM; under setting [5], 42.9 nM. Also, the viability, T/C was 75.4% (second compound 0.1 µM, first compound 0.00316 µM); 53.7% (second compound 0.1 µM, first compound 0.01 µM); 50.2% under setting [6]; 48.7% under setting [7]; 47.5% under setting [8]; 38.7% under setting [9]. Besides, the viability, T/C is, setting by setting: (second compound 0.316 µM, first compound 0.00316 µM) 74%; (second compound 0.316 µM, first compound 0.01 µM) 54.4%; under setting [10], 55.4%; under setting [11], 51%; under setting [12], 45.8%; under setting [13], 38.2%. Further, the viability, T/C was 79.1% (second compound 1 µM, first compound 0.00316 µM); 54.5% (second compound 1 µM, first compound 0.01 µM); 51.8% under setting [14]; 55.4% under setting [15]; 50.4% under setting [16]; 35.2% under setting [17]. Moreover, the viability, T/C was 73.2% (second compound 3.16 µM, first compound 0.00316 µM); 47.5% (second compound 3.16 µM, first compound 0.01 µM); 59.6% under setting [18]; 47.5% under setting [19]; 43.7% under setting [20]; 31.1% under setting [21]. For the same compound, the viability, T/C was 62.1% (second compound 10 µM, first compound 0.00316 µM); 44.7% (second compound 10 µM, first compound 0.01 µM); 55.1% under setting [22]; 49.1% under setting [23]; 34.4% under setting [24]; 25.4% under setting [25].

Regarding `O=C(C=Cc1cccc(S(=O)(=O)Nc2ccccc2)c1)NO` + NC1CC1c1ccc(-c2cccc(O)c2)cc1, the IC50 was determined as 54.8 nM under setting [1]; 54.7 nM under setting [2]; 53.8 nM under setting [3]; 59.5 nM under setting [4]; 36.4 nM under setting [5]. Besides, the viability, T/C is, setting by setting: (second compound 0.1 µM, first compound 0.00949 µM) 76%; (second compound 0.1 µM, first compound 0.03 µM) 70%; (second compound 0.1 µM, first compound 0.0949 µM) 20.3%; (second compound 0.1 µM, first compound 0.3 µM) 3.17%; (second compound 0.1 µM, first compound 0.949 µM) 0.96%; (second compound 0.1 µM, first compound 3 µM) 103%. Also, the viability, T/C is, setting by setting: (second compound 0.316 µM, first compound 0.00949 µM) 76.8%; (second compound 0.316 µM, first compound 0.03 µM) 70.2%; (second compound 0.316 µM, first compound 0.0949 µM) 19.2%; (second compound 0.316 µM, first compound 0.3 µM) 3.03%; (second compound 0.316 µM, first compound 0.949 µM) 0.63%; (second compound 0.316 µM, first compound 3 µM) 103%. The viability, T/C (second compound 1 µM, first compound 0.00949 µM) is 83.1%; the viability, T/C (second compound 1 µM, first compound 0.03 µM) is 68.7%; the viability, T/C (second compound 1 µM, first compound 0.0949 µM) is 20.3%; the viability, T/C (second compound 1 µM, first compound 0.3 µM) was 3.41%; the viability, T/C (second compound 1 µM, first compound 0.949 µM) is 0.58%; the viability, T/C (second compound 1 µM, first compound 3 µM) was 103%. For the same compound, the viability, T/C is, setting by setting: (second compound 3.16 µM, first compound 0.00949 µM) 77.7%; (second compound 3.16 µM, first compound 0.03 µM) 78.5%; (second compound 3.16 µM, first compound 0.0949 µM) 22.2%; (second compound 3.16 µM, first compound 0.3 µM) 3.57%; (second compound 3.16 µM, first compound 0.949 µM) 0.78%; (second compound 3.16 µM, first compound 3 µM) 96.6%. The viability, T/C (second compound 10 µM, first compound 0.00949 µM) was 81.5%; the viability, T/C (second compound 10 µM, first compound 0.03 µM) is 56.3%; the viability, T/C (second compound 10 µM, first compound 0.0949 µM) is 14.6%; the viability, T/C (second compound 10 µM, first compound 0.3 µM) is 3.03%; the viability, T/C (second compound 10 µM, first compound 0.949 µM) was 0.44%; the viability, T/C (second compound 10 µM, first compound 3 µM) was 58.3%.

In the case of `O=C(c1cc(Cc2n[nH]c(=O)c3ccccc23)ccc1F)N1CCN(C(=O)C2CC2)CC1` + NC1CCC(NC2CC2c2ccccc2)CC1, the IC50 was 4250 nM under setting [1]; 5900 nM under setting [2]; 4180 nM under setting [3]; 4910 nM under setting [4]; 2520 nM under setting [5]. Further, the viability, T/C under setting [6] is 93.9%; the viability, T/C under setting [7] was 88.8%; the viability, T/C under setting [8] is 82.6%; the viability, T/C under setting [9] was 77.8%; the viability, T/C (second compound 0.1 µM, first compound 3.16 µM) is 51.7%; the viability, T/C (second compound 0.1 µM, first compound 10 µM) was 40.6%. Besides, the viability, T/C by setting is: under setting [10], 93.8%; under setting [11], 87.3%; under setting [12], 82.4%; under setting [13], 77.2%; (second compound 0.316 µM, first compound 3.16 µM) 59.5%; (second compound 0.316 µM, first compound 10 µM) 41.1%. Further, the viability, T/C reads like this: under setting [14], 106%; under setting [15], 98.1%; under setting [16], 79.4%; under setting [17], 75.4%; (second compound 1 µM, first compound 3.16 µM) 62.2%; (second compound 1 µM, first compound 10 µM) 28.9%. Also, the viability, T/C was 92.4% under setting [18]; 89% under setting [19]; 87% under setting [20]; 69.6% under setting [21]; 64.6% (second compound 3.16 µM, first compound 3.16 µM); 32.4% (second compound 3.16 µM, first compound 10 µM). Further, the viability, T/C was 89.5% under setting [22]; 68.7% under setting [23]; 64.8% under setting [24]; 62.4% under setting [25]; 48.7% (second compound 10 µM, first compound 3.16 µM); 38.2% (second compound 10 µM, first compound 10 µM).

For the compound `CC1(C)CCC(CN2CCN(c3ccc(C(=O)NS(=O)(=O)c4ccc(NCC5CCOCC5)c([N+](=O)[O-])c4)c(Oc4cnc5[nH]ccc5c4)c3)CC2)=C(c2ccc(Cl)cc2)C1`, the viability, T/C runs as follows: (compound 0.0316 µM) 98.4% and 106%; (compound 0.1 µM) 88.2% and 103%; (compound 0.316 µM) 95.9% and 91.1%; (compound 1 µM) 84.3% and 68.4%; (compound 3.16 µM) 67.7% and 24.9%; (compound 10 µM) 13.5% and 0.24%. Besides, the IC50 (curve of compound) is 4560 nM and 1600 nM.

Turning to `CCN(c1cc(-c2ccc(CN3CCOCC3)cc2)cc(C(=O)NCc2c(C)cc(C)[nH]c2=O)c1C)C1CCOCC1`, the viability, T/C is 91.2% and 96.2% (compound 0.00949 µM); 100% and 97.8% (compound 0.03 µM); 93.4% and 87.5% (compound 0.0949 µM); 91.6% and 50.8% (compound 0.3 µM); 76.7% and 26.2% (compound 0.949 µM); 68.7% and 10% (compound 3 µM). Also, the IC50 (curve of compound) is > 3000 nM and 343 nM.

In general, IC50 refers to the concentration at which inhibition is half-maximal. In general, viability, T/C refers to the ratio of treated to control.
